From patent publication US10441562B2, “Aromatic farnesyl compound and application thereof” (INSTITUTE OF MICROBIOLOGY, CHINESE ACADEMY OF SCIENCES, priority 2015, dated 2019) come the findings set out here.

The IC50 is the concentration that gives 50% inhibition.

Type in all cases: biochemical
Test [1] concerns the target T1, α-glucosidase (Saccharomyces cerevisiae, UniProt P53341).
T1 construct: purchased Sigma Corporation G5003
Nature of the test: α-glucosidase inhibitory activity test in vitro. As for the experimental part:
Add 25 μL α-glucosidase water solution (0.2 U/mL) and 175 μL phosphate buffer (50 mM, pH 7.0) into 25 μL different concentration of the above test solutions. The mixed solution is standed for 10 min at room temperature, and then 25 μL 4-nitrophenyl-α-D-glucopyranoside water solution (2.5 mM) is added into the mixed solution. After the solution is incubated at 37 °C for 30 min and centrifuged at 5000 rpm for 5 minutes, 150 uL supernatant is added into 96-well plates and the absorbance is detected at 405 nm.
Blank group: the test solution is replaced by 25 μL phosphate buffer (50 mM, pH 7.0); blank control group: the test solution is replaced by 25 μL phosphate buffer (50 mM, pH 7.0), meanwhile α-glucosidase water solution is replaced by 25 μL phosphate buffer (50 mM, pH 7.0); sample control group: α-glucosidase water solution is replaced by 25 μL phosphate buffer (50 mM, pH 7.0).
(§1) Repeat each of the above experiment groups for 3 times, and then average the results.
IC50=[CL(IH−50)+CH(50−IL)]/(IH−IL) CL: low concentration value; CH: high concentration value; IH: inhibition rate in high concentration; IL: inhibition rate in low concentration

For test [2], the target named is T2, HMG-CoA reductase (Homo sapiens, UniProt P04035).
T2 sequence (P04035 426-888 limits assumed): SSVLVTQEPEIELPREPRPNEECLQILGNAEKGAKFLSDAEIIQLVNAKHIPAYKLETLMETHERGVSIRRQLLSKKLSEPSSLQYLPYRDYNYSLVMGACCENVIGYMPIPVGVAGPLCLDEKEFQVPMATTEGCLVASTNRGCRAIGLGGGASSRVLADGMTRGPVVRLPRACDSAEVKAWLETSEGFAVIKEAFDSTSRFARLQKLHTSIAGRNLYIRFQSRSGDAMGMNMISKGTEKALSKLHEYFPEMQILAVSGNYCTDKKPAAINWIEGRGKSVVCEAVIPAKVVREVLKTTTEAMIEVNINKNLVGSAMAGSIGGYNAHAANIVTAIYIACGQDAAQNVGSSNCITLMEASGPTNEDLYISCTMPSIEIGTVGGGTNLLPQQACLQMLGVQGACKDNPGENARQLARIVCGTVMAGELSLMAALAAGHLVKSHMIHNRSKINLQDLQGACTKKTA
Nature of the test: HMG-CoA reductase inhibitory activity test in vitro. As for the experimental part:
Add 25 μL HMG-CoA reductase water solution (0.2 U/mL), 25 μL NADPH water solution (0.2 U/mL) and 24 μL phosphate buffer (50 mM, pH 7.0) into 1 μL different concentration of the above test solution. The mixed solution is standed for 10 min at room temperature, and then 25 μL HMG-CoA is added into the mixed solution. After the solution is incubated at 37∞ for 30 min and centrifuged at 5000 rpm for 5 minutes, 80 uL supernatant is added into 96-well plates and the absorbance is detected at 550 nm.
as §1

Test [3] concerns the target T3, protein tyrosine phosphatase 1B (PTP-1B) (Homo sapiens, UniProt P18031).
T3 sequence (P18031 1-435): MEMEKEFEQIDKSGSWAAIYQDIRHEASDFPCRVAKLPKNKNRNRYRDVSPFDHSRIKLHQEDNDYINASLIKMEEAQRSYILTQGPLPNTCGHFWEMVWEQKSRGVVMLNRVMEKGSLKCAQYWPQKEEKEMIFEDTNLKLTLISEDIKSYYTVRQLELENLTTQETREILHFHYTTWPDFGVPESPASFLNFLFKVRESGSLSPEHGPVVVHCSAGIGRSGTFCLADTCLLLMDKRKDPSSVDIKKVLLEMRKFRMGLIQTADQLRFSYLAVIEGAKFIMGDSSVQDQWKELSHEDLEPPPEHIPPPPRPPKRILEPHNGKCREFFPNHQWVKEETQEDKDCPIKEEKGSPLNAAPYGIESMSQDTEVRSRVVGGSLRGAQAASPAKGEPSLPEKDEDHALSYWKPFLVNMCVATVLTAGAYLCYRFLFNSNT
The test is described as follows: PTP-1B inhibitory activity test in vitro. As for the experimental part: Experimental procedure: the following reagents are added into 96-well plates in sequence and the mixture ratios of different groups are as followings: Test group: 50 μL compound solution+50 μL 170 μg/mL PTP-1B solution […] Blank group: 50 μL buffer solution+50 μL 170 μg/mL PTP-1B solution Background group: 50 μL compound solution+50 μL buffer solution After adding the reagents, the 96-well plate is […] for 10 min at room temperature to make the compound and the enzyme react completely. Add 50 μL 1 mM pNPP solution which is used as substrate and incubate the mixed solution at 37 °C for 30 min. Then add 50 μL 3M NaOH into each well of the plate to stop the reaction and the optical density is detected at […].

Test [4] addresses aldose reductase (Homo sapiens, UniProt P15121). Nature of the test: aldose reductase inhibitory activity test in vitro. The method, then: Experimental procedure: the following reagents are added into 96-well plates in sequence and the mixture ratios of different groups are as followings:
Test group: 10 μL compound solution+25 μL (0.1 mM) NADPH solution+25 μL PBS buffer solution+15 μL aldose reductase diluent
Blank group: 25 μL (0.1 mM) NADPH solution+35 μL PBS buffer solution+15 μL aldose reductase diluent
Background group: 25 μL (0.1 mM) NADPH solution+60 μL PBS buffer solution+15 μL aldose reductase diluent
After adding the reagents, the 96-well plate is standed for 10 min at room temperature to make the compound and the enzyme react completely. Add 25 μL 10 mM D, L glyceraldehyde solution which is used as substrate into the groups except for background group, and incubate the solution at 37 °C for 30 min. Then detect the optical density of each well at 340 nm.

Test [5] has as its target T4, dipeptidyl peptidase-4 (Homo sapiens, UniProt P27487).
T4 construct: purchased
The test is described as follows: dipeptidyl peptidase-4 inhibitory activity test in vitro (DPP-4 inhibitor screening kit). From the text:
The above compounds are detected by DPP-4 inhibitor screening kit.

Where [6] appears, read: read-out: α-glucosidase inhibitory activity (IC50).

Where two headings read alike, the source gives them in different places.

T1 sequence (P53341 whole entry): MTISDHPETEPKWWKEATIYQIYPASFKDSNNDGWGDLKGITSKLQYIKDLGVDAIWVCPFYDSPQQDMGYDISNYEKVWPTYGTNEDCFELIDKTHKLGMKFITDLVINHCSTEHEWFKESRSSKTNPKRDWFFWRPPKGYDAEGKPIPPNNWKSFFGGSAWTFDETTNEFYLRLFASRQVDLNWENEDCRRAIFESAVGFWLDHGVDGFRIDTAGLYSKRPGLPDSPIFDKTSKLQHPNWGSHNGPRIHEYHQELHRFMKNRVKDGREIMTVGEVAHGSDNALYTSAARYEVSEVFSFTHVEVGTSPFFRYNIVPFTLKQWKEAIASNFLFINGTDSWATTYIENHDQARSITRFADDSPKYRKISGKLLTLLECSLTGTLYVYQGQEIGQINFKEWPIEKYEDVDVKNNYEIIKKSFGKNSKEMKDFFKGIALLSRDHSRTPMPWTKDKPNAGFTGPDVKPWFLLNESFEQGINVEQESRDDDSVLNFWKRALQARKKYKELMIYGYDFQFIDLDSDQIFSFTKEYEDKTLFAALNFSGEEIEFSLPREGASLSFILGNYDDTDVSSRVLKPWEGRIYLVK
T4 sequence (P27487 whole entry, species assumed): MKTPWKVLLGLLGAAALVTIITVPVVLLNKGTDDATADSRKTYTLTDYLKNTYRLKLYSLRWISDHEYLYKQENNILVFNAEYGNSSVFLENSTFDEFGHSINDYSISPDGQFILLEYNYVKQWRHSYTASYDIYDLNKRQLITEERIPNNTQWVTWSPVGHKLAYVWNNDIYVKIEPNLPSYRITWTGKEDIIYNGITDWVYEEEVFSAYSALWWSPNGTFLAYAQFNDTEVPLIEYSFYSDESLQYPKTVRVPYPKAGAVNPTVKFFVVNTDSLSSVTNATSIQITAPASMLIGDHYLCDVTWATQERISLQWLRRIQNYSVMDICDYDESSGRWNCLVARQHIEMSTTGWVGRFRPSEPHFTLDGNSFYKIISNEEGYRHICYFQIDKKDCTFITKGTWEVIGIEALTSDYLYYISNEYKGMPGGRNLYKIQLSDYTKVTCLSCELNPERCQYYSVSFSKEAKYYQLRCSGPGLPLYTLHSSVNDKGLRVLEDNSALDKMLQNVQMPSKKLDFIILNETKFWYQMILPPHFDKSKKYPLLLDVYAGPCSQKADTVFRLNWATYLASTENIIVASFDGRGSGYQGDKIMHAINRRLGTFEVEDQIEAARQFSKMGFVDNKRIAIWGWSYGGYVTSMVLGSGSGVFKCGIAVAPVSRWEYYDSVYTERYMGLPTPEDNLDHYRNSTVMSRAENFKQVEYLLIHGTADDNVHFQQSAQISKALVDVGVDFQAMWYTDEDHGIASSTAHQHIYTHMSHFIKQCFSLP

Consider `CC(C)=CCC/C(C)=C/CCC1=C[C@H](c2ccccc2)OC1=O` [S1, (R,E)-3-(4,8-dimethylnona-3,7-dien-1-yl)-5-phenylfuran-2 (5H)-one], for which the IC50 in test [1] (setting [6]) stood at 0.18 µM; in test [2], 3.8 µM; in test [3], 10.5 µM; in test [4], 56.1 µM; in test [5] it was 12.2 µM.

`CC(C)=CCC/C(C)=C/CCC1=C[C@H](c2ccc3ccccc3c2)OC1=O` [S2]: the IC50 in test [1] (setting [6]) amounted to 7.4 µM; in test [2] it was 49.8 µM; in test [3] it was 13.1 µM; in test [4], 19.8 µM; in test [5], 12.5 µM.

Turning to `COCOc1ccccc1[C@H]1C=C(CC/C=C(\C)CCC=C(C)C)C(=O)O1` [S3], the 50% inhibitory concentration (IC50) was determined as 8.65 µM in test [1] (setting [6]); 8.9 µM in test [2]; 7.8 µM in test [3]; 38.3 µM in test [4]; 14.5 µM in test [5].

Take `CC(C)=CCC/C(C)=C/CCC1=C[C@H](c2ccccc2O)OC1=O` [S4, (R,E)-3-(4,8-dimethylnona-3,7-dien-1-yl)-5-(2-hydroxyphenyl)furan-2 (5-H)-one]: the IC50 amounted to 0.21 µM in test [1] (setting [6]); 4.7 µM in test [2]; 11.1 µM in test [3]; 23.5 µM in test [4]; 21.2 µM in test [5].

Regarding `CC(C)=CCC/C(C)=C/CCC1=C[C@H](c2ccccc2[N+](=O)[O-])OC1=O` [S5, (R,E)-3-(4,8-dimethylnona-3,7-dien-1-yl)-5-(2-nitrophenyl)furan-2(5H)-one], the IC50 in test [1] (setting [6]) was 0.09 µM; in test [2], 18.9 µM; in test [3], 5.3 µM; in test [4], 8.5 µM; in test [5], 20.9 µM.

On to `CC(C)=CCC/C(C)=C/CCC1=C[C@H](c2ccc(C)cc2)OC1=O` [S6, (R,E)-3-(4,8-dimethylnona-3,7-dien-1-yl)-5-(p-tolyl)furan-2(5H)-one], for which the IC50 in test [1] (setting [6]) was found to be 1.06 µM; in test [2] it was 8.1 µM; in test [3], 5.6 µM; in test [4], 63.2 µM; in test [5], 31.5 µM.

On to `CCc1ccc([C@H]2C=C(CC/C=C(\C)CCC=C(C)C)C(=O)O2)cc1` [S7, (R,E)-3-(4,8-dimethylnona-3,7-dien-1-yl)-5-(4-ethylphenyl)furan-2(5H)-one], for which the IC50 was found to be 0.58 µM in test [1] (setting [6]); 4.2 µM in test [2]; 15.5 µM in test [3]; 59 µM in test [4]; 9.2 µM in test [5].

For the molecule `CC(C)=CCC/C(C)=C/CCC1=C[C@H](c2ccc(C(C)C)cc2)OC1=O` [S8, (R,E)-3-(4,8-dimethylnona-3,7-dien-1-yl)-5-(4-isopropylphenyl)furan-2(5H)-one], the half-maximal inhibitory concentration (IC50) in test [1] (setting [6]) is 56.2 µM; in test [2], over 100 µM; in test [3] it was 12.7 µM; in test [4] it was 84.4 µM; in test [5] it was 9.4 µM.

In the case of `CC(C)=CCC/C(C)=C/CCC1=C[C@H](c2ccc(C(C)(C)C)cc2)OC1=O` [S9, (R,E)-5-(4-(tert-butyl)phenyl)-3-(4,8-dimethylnona-3,7-dien-1-yl)furan-2 (5H)-one], the IC50 in test [1] (setting [6]) worked out at 0.16 µM; in test [2], 16.4 µM; in test [3] it was 15.8 µM; in test [4], 1.4 µM; in test [5] it was 19.1 µM.

For `COc1ccc([C@H]2C=C(CC/C=C(\C)CCC=C(C)C)C(=O)O2)cc1` [S10, (R,E)-3-(4,8-dimethylnona-3,7-dien-1-yl)-5-(4-methoxyphenyl)furan-2(5H)-one], the IC50 in test [1] (setting [6]) is over 50 µM; in test [2] it was 1.2 µM; in test [3] it was 10.1 µM; in test [4], over 100 µM; in test [5] it was 18.2 µM.

Consider `CC(C)=CCC/C(C)=C/CCC1=C[C@H](c2ccc([N+](=O)[O-])cc2)OC1=O` [S11, (R,E)-3-(4,8-dimethylnona-3,7-dien-1-yl)-5-(4-nitrophenyl)furan-2(5H)-one], for which the IC50 in test [1] (setting [6]) stood at 34.2 µM; in test [2] it was 7.4 µM; in test [3] it was 8.1 µM; in test [4], 4.9 µM; in test [5] it was 10.2 µM.

On to `COc1ccc(OC)c([C@H]2C=C(CC/C=C(\C)CCC=C(C)C)C(=O)O2)c1` [S12, (R,E)-5-(2,5-dimethoxyphenyl)-3-(4,8-dimethylnona-3,7-dien-1-yl)furan-2(5H)-one], for which the IC50 is 11.5 µM in test [1] (setting [6]); 4.4 µM in test [2]; 11.8 µM in test [3]; 26.1 µM in test [4]; 8.8 µM in test [5].

Regarding `CC(C)=CCC/C(C)=C/CCC1=C[C@H](c2c(F)cccc2F)OC1=O` [S14, (R,E)-5-(2,6-difluorophenyl)-3-(4,8-dimethylnona-3,7-dien-1-yl)furan-2(5H)-one], the IC50 in test [1] (setting [6]) worked out at 3.72 µM; in test [2] it was 25.1 µM; in test [3] it was 3.7 µM; in test [4], 32.1 µM; in test [5], 24.5 µM.

Consider `CC(C)=CCC/C(C)=C/CCC1=C[C@H](c2cc(F)c(F)c(F)c2)OC1=O` [S15, (R,E)-3-(4,8-dimethylnona-3,7-dien-1-yl)-5-(3,4,5-trifluorophenyl)furan-2(5H)-one], for which the 50% inhibitory concentration (IC50) in test [1] (setting [6]) worked out at 1.27 µM; in test [2], 38.2 µM; in test [3], 25.4 µM; in test [4], 54.9 µM; in test [5], 12.1 µM.

As to `CC(C)=CCC/C(C)=C/CCC1=C[C@@H](c2ccc3ccccc3c2)OC1=O` [S17, (S,E)-3-(4,8-dimethylnona-3,7-dien-1-yl)-5-(naphthalen-2-yl)furan-2 (5H)-one], the IC50 in test [1] (setting [6]) is 6.32 µM; in test [2], 42.2 µM; in test [3] it was 10.1 µM; in test [4] it was 20.2 µM; in test [5], 13.6 µM.

For `COCOc1ccccc1[C@@H]1C=C(CC/C=C(\C)CCC=C(C)C)C(=O)O1` [S18, (S,E)-3-(4,8-dimethylnona-3,7-dien-1-yl)-5-(2-(methoxymethoxy)phenyl) furan-2(5H)-one], the IC50 in test [1] (setting [6]) turned out to be 8.2 µM; in test [2], 6.2 µM; in test [3], 8.2 µM; in test [4], 40.2 µM; in test [5] it was 14.4 µM.

`CC(C)c1c(C(=O)Nc2ccccc2)c(-c2ccccc2)c(-c2ccc(F)cc2)n1CC[C@@H](O)C[C@@H](O)CC(=O)O` [atorvastatin, reference compound] registered an IC50 in test [1] of 273 µM.
